These results are taken from patent US20260007652A1, “Selective Modulators of AhR-Regulated Transcription and Method for Using Such Modulators to Treat Cancer” (OREGON STATE UNIVERSITY, priority 2022, published 2026).

Each structure is given as a SMILES string.

The test system of data set [1] is HCC1187 cells. Kind of data set: Cell viability assay, HCC1187 TNBC cells. It is filed as cell-based, human. How it is done: (§1) Viability assays were performed by seeding cells at a density of 2000 cells per well in 96-well plates, and the following day, treating with compounds for 48 or 72 hours as indicated. Viability was determined by ATP-based Cell-Titer Glo Viability Assay (Promega, Madison WI). Luminescence was measured using the Tropix TR717 microplate luminometer. Viability of treated cells was determined by relativizing to vehicle (0.1-0.3% DMSO) treated wells. For profiling the activity of Analog 523 against the panel of triple-negative breast cancer cell lines, 72-hour treatments are represented.

The subject of data set [2] is ST2 cells. The data set is described as follows: Cell viability assay, TNBC stem cells ST2. The format is cell-based. The conditions noted are these: Homo sapiens, ST-2; 100 nM; 48 hours. As to the method: as §1
ST1 and ST2 cells were cultured in Mammary epithelial growth medium (Biowhitakker) (Lonza), with the following supplements: Epidermal growth factor (20 ng/mL) (Sigma), basic fibroblast growth factor (20 ng/mL) (BD Biosciences), Heparin (4 μg/mL) (Sigma), B27 Supplement (Invitrogen), Penicillin/Streptomycin (Omega), Gentamycin (35 μg/mL) (Sigma). Cells were gently passaged with Accutase solution. The isolation and characterization of the ST1 and ST2 lines have been previously described (Strietz et al., 2021).

The subject of data set [3] is AhR. The data set is described as follows: Xenobiotic response element (XRE) driven reporter in Hepa-1 cells, AhR activation. It is filed as cell-based, mouse. The conditions noted are these: 16 hours. How it is done:
FIGS. 69A-69D show representative 11-Cl-BBQ analogs (848 and 849) as non-classical AHR ligands. (A) Stability of AHR protein in the H460 whole cell lysate in the presence or absence of 11-Cl-BBQ (5 μM), PRXS-848 (10 μM), and PRXS-849 (10 μM) at the indicated temperatures; GADPH was used as a loading control. (B) Localization of AHR protein in the H460 treated with 11-Cl-BBQ (100 nM), PRXS-848 (250 nM), PRXS-849 (250 nM), or vehicle control (0.1% DMSO) for two hours; top horizontal panel: AHR protein staining using an AHR-specific antibody conjugated with FITC (green) fluorophore; middle panel: DAPI staining; bottle panel: overlaid images from the top panel and the middle panel in the same column. (C) AHR activation (measured by XRE-luciferase reporter assay in Hepa1 cells) of the parental lead 11-Cl-BBQ and analogs PRXS-848 and PRXS-849 at the indicated concentrations for 16 hours. (D) AHR activation of 11-Cl-BBQ cotreated with a known AHR antagonist CH223191 (1 μM) or 11-Cl-BBQ analogs PRXS-848 and PRXS-849 at the indicated concentrations for 16 hours.
FIG. 76 presents representative AhR compounds (BBQ analogs) of the invention effective for activation of AhR transcription. Activation values greater than 1 at 100 nM were considered a hit with nanomolar affinity to promote AhR activity and synergize with the identified compounds from the synergy screens. Referring to FIG. 76, Fold@ 1 nM refers to activation of AhR transcription at 1 nM; Fold@100 nM refers to activation of AbR transcription at 100 nM; and Fold rel @ 100 refers to relative activation at 100 nM compared to parental compound, 11-Cl-BBQ. The representative AhR ligand compounds presented in FIG. 76 activate AhR transcription and therefore are useful as anti-cancer agents, either alone or in combination with the synergizing compounds (and chemotherapeutic agents) described herein.
was identified as a top hit compound based on its potent (>50% inhibition at 0.1 μM), and selective activity against AhR WT cells versus AhR KO cells (>70% difference between WT and KO cells at 10 μM) (FIG. 11). […] This confirmed Analog 523 activates AhR-mediated transcription and functions as an AhR ligand.

Data set [4] concerns MDA-MB-468 cells. The data set is described as follows: Cell-Titer Glo viability assay, MDA-MB-468 AhR WT and AhR KO cells. It is filed as cell-based, human. As to the method:
as §1
Analogs of 11-Cl-BBQ were synthesized by Praxis Precision Medicines. Screening was performed using MDA-MB-468 AhR WT and AhR KO cells previously described. Cells were seeded in 10% serum or 2% serum containing media with 1% Pen/Strep at a density of 2000 cell/well in 96-well plates. 20 hours post-seeding, cells were treated with 0.1 μM, 1 μM, or 10 μM of each analog (final DMSO concentration 0.1%-0.2%). After 48 and 72 hours, cells were harvested. The ATP-Based CellTiter Glo Assay kit (Promega, Madison, WI) was used for measuring cell viability.

Data set [5] has as its system primary human mammary epithelial cells (HMECs) and MCF10A. Kind of data set: Cell viability, primary human mammary epithelial cells (HMECs) and MCF10A. The format is cell-based. The conditions noted are these: 72-hour exposure. How it is done: as §1
All cell lines, except for the ST1 and ST2 cells were purchased from ATCC, and maintained in 5% CO2, at 37° C., in DMEM or RPMI media containing 10% FBS, and 1% penicillin/streptomycin. All HCC-cell lines were maintained in RPMI. All MDA-cell lines were maintained in DMEM. ZR-75I cells were maintained in RPMI. SKBR3 cells were maintained in DMEM. MCF10A cells were maintained in DMEM/F12 medium with the following supplements added: 5% horse serum, 20 ng/mL epidermal growth factor, […] hydrocortisone, 100 ng/mL cholera toxin, 10 μg/mL insulin, 1% Pen/Strep. Primary human mammary epithelial cells (HMECs) were obtained from Lonza Biosciences (Basel, Switzerland) and were maintained according to the specified culture protocols in Clonetics™ Mammary Epithelial Basal Medium (Lonza). […]

Data set [6] has as its system HCC70 cells. The data set is described as follows: Cell viability assay, HCC70 TNBC cells. It is filed as cell-based, human. As to the method: as §1
Data set [7] deals with SKBR-3 HER2+ breast cancer cells. Kind of data set: Cell viability assay, SKBR-3 HER2+ breast cancer cells. Particulars: 72 hours. It is filed as cell-based, human. As to the method:
as §1

For data set [8] the following is noted: rats; cited from earlier work.
The subject of data set [9] is MDA-MB-468 cells. The data set is described as follows: Transcriptional profiling by RNA-Seq, MDA-MB-468 AhR WT cells. The format is cell-based, human. Particulars: 250 nM. How it is done:
MDA-MB-468 AhR WT and AhR KO cells were seeded in 10 cm plates (3.5 million cells/plate) and allowed to attach overnight. The following day, media was replaced with fresh media containing 250 nM of Analog 523 or Vehicle (0.1% DMSO). Treatments were performed in triplicate. At 4 hours and 12 hours post-treatment, samples were harvested by addition of 700 μL of TRK-Lysis buffer and RNA isolation then performed according to the manufacturer's instructions (E.Z.N.A. Total RNA Kit, Omega Bio-Tek, Norcross, GA). Samples were quantified and 260/280 and 260/230 values inspected by NanoDrop. Samples were then sent for quality control, library preparation (poly-A enrichment) and sequencing at Novogene. Sequencing was performed with 150 bp paired-end reads to a depth of 20 million reads […].

With `O=c1c2cccc3cccc(c32)c2nc3ccccc3n12` [Analog 523, 7H-benzimidazo[2,1-a]benzo[de]isoquinolin-7-one], the IC50 (as a rule, the concentration that inhibits the measured activity by half) in data set [1] (Homo sapiens, HCC1187, 72-hour treatment) was 81.7 nM; in data set [4] (Homo sapiens, MDA-MB-468, 72-hour treatment), 41.2 nM; in [6] (Homo sapiens, HCC70, 72-hour treatment), 153 nM. Also, the “inhibition (cell viability)” value in data set [1] (at <0.5 μM, 72 hours) is on record as above 50%; in data set [4] (at <0.5 μM, 72 hours), above 50%; in [6] (at <0.5 μM, 72 hours), above 50%. In addition, in data set [2], the inhibition of cell viability at 0.1 µM is above 50%. Also, the “receptor activation (XRE reporter)” value in data set [3] (100 μM) is around 2 fold. Moreover, in [3] (approximately 100 nM), the maximal reporter induction is on record as 10-12 fold. The “difference between WT and KO cells (cell viability)” value in data set [4] (10 μM, AhR WT versus AhR KO) is above 70%. The percent inhibition of cell viability at 0.1 µM in data set [4] (Homo sapiens, 0.1 μM, AhR WT MDA-MB-468 cells) is above 50%. The “inhibition of cell viability in normal mammary epithelial cells” value in [5] (10 μM) is reported as around 20%. For the same molecule, the “cytotoxicity in normal mammary epithelial cells” value in data set [5] (0.01-10 μM) is recorded as “did not induce any cytotoxicity”. The “concentrations at which cell line was sensitive (viability)” value in data set [7] is above 1 µM. For the same molecule, the median lethal dose (LD50) (in general, the dose expected to kill half of the subjects tested) in data set [8] was 660 mg/kg. For the same molecule, in data set [9], the “BIK mRNA induction” value is around 1.5 fold. In addition, the “BMF mRNA induction” value in data set [9] is 4-5 fold. In [9], the “PMA1P1 mRNA induction” value was around 1.5 fold. In addition, the “IER3 mRNA increase” value in data set [9] (12 hours) is “greater than 6 fold”. For the same molecule, the “OSGIN1 mRNA increase” value in data set [9] (12 hours) was above 4 fold.
